Assay results from patent US9107415B2, “2-(substituted-phenyl)-cyclopentane-1,3-dione compounds, and derivatives thereof” (Syngenta Limited, priority 2011, dated 2015).

How the values were obtained:
Format in all cases: in vivo
Setaria viridis (SETVI) = assay: Biological Example 4B (not-previously-formulated compounds) post-emergence herbicidal activity on grassy weeds; details: 14 DAA, technical compound in IF50 + Adigor, mean of two
Procedure: (§1) Seeds of a variety of test species are sown in standard soil in pots. After cultivation for 14 days under controlled conditions in a glasshouse (at 22/16°C., day/night; 16 hours light; 65% humidity), the plants are sprayed with an aqueous spray solution derived from the formulation of the technical active ingredient dissolved in acetone plus IF50 containing
(§2) 10.56 wt % Emulsogen™EL (castor oil ethoxylate, CAS Registry number 61791-12-6)
(§3) 42.22 wt % N-Methyl pyrrolidone
(§4) 42.22 wt % dipropylene glycol monoethyl ether
(§5) at a 1:20 ratio of (technical active ingredient:IF50). The adjuvant Adigor™(an adjuvant containing inter alia methylated rapeseed oil, e.g. available from Syngenta) is added to form a 0.5% v/v solution. The test plants are then grown on under controlled conditions in the glasshouse (at 22/16°C., day/night; 16 hours light; 65% humidity) and are watered twice daily. After 14 days the test is evaluated (100%=total damage to plant; 0%=no damage to plant).
(§6) […] Herbicidal activity (phytotoxicity) is evaluated visually, and an assessed percentage phytotoxicity score is given for each herbicidal application on each plant species (with 100%=total damage to plant; 0%=no damage to plant). Two repetitions are made for each experiment, and the mean herbicidal activity (phytotoxicity) data is reported.
(§7) Test plants: Avena fatua (AVEFA), Lolium multiflorum (LOLMU), Setaria viridis (SETVI), Poa annua (POAAN), Alopecurus myosuroides (ALOMY). All five of these are grassy monocotyledonous weeds.

Avena fatua (AVEFA) = assay: as above; details: 14 DAA, technical compound in IF50 + Adigor, mean of two
Procedure: as §1, §2, §3, §4, §5, §6, §7

[1] = tested on: Alopecurus myosuroides (ALOMY); assay: as above; details: 14 DAA, technical compound in IF50 + Adigor, mean of two
Procedure: as §1, §2, §3, §4, §5, §6, §7

[2] = tested on: Lolium perenne, perennial ryegrass (LOLPE); assay: Biological Example 3 glasshouse screen, post-emergence herbicidal activity; details: 360 h, 15 DAA, no safener, read-out: LOLPE percentage phytotoxicity; for pest or weed control at 30 g/ha: application rate 30 g/ha; for pest or weed control at 60 g/ha: application rate 60 g/ha
Summary of the method: (§8)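 Plants grown 12 days in glasshouse pots (24/18°C or 20/16°C day/night, 16 h light, 65% humidity), then sprayed with active ingredient in acetone plus IF50 (1:20) in water with 0.2% v/v X-77. No safener used. Visual % phytotoxicity (100% = total damage) scored 15 DAA.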

[3] = tested on: Avena fatua, wild oats (AVEFA); assay: as above; details: 360 h, 15 DAA, no safener, read-out: AVEFA percentage phytotoxicity; for pest or weed control at 30 g/ha: application rate 30 g/ha; for pest or weed control at 60 g/ha: application rate 60 g/ha
Summary of the method: as §8

[4] = tested on: Alopecurus myosuroides, blackgrass (ALOMY); assay: as above; details: 360 h, 15 DAA, no safener, read-out: ALOMY percentage phytotoxicity; for pest or weed control at 30 g/ha: application rate 30 g/ha; for pest or weed control at 60 g/ha: application rate 60 g/ha
Summary of the method: as §8

[5] = tested on: Echinochloa crus galli, barnyardgrass (ECHCG); assay: as above; details: 360 h, 15 DAA, no safener, read-out: ECHCG percentage phytotoxicity; for pest or weed control at 30 g/ha: application rate 30 g/ha; for pest or weed control at 60 g/ha: application rate 60 g/ha
Summary of the method: as §8

[6] = tested on: Echinochloa crus-galli (ECHCG); assay: Biological Example 1 glasshouse screen, post-emergence herbicidal activity; details: 312 h, application rate 250 g/ha, evaluated after 13 days, read-out: ECHCG percentage phytotoxicity
Summary of the method: (§9)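 Phytotoxicity was scored visually as % damage (100 = total, 0 = none) 13 days after spraying. Spray was acetone/water (50:50) with 0.5% Tween 20, applied to soil-sown pots 1 day (pre-emergence) or 8 days (post-emergence) after sowing. Glasshouse at 24/16°C, 14 h light, 65% humidity.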

[7] = tested on: Alopecurus myosuroides (ALOMY); assay: as above; details: 312 h, application rate 250 g/ha, evaluated after 13 days, read-out: ALOMY percentage phytotoxicity
Summary of the method: as §9

Winter Barley “Suzuka” = assay: Biological Example 4B post-emergence phytotoxicity on cereal crops; details: 14 DAA, technical compound in IF50 + Adigor, mean of two
Procedure: as §1, §2, §3, §4, §5, §6

Winter Wheat “Hereward” = assay: as above; details: 14 DAA, technical compound in IF50 + Adigor, mean of two
Procedure: as §1, §2, §3, §4, §5, §6

[8] = 15 g/ha, cloquintocet-mexyl 50 g/ha
[9] = 30 g/ha, cloquintocet-mexyl 50 g/ha
[10] = 60 g/ha, cloquintocet-mexyl 0 g/ha
[11] = 60 g/ha, cloquintocet-mexyl 50 g/ha

With `CC#Cc1cc(C)c(C2C(=O)CC(Cc3ccn(C)n3)C2=O)c(C)c1` (centres unmarked) [Compound A-19] the SETVI % phytotoxicity (Setaria viridis (SETVI); [8]) was 99%, the SETVI % phytotoxicity (Setaria viridis (SETVI); [9]) was 100% and the SETVI % phytotoxicity (Setaria viridis (SETVI); [10]) was 100%. It also gave an SETVI % phytotoxicity (Setaria viridis (SETVI); [11]) of 100%, an AVEFA % phytotoxicity (Avena fatua (AVEFA); [8]) of 88% and an AVEFA % phytotoxicity (Avena fatua (AVEFA); [9]) of 90%. It also gave an AVEFA % phytotoxicity (Avena fatua (AVEFA); [10]) of 99%, an AVEFA % phytotoxicity (Avena fatua (AVEFA); [11]) of 99% and an ALOMY % phytotoxicity [1, 8] of 99%. For the same compound, the ALOMY % phytotoxicity [1, 9] was 100%, the ALOMY % phytotoxicity [1, 10] was 100% and the ALOMY % phytotoxicity [1, 11] was 100%. The pest or weed control at 15 g/ha ([2]; application rate 15 g/ha) was 30%, the pest or weed control at 30 g/ha [2] was 80% and the pest or weed control at 15 g/ha ([3]; application rate 15 g/ha) was 40%. It also gave a pest or weed control at 30 g/ha [3] of 90%, a pest or weed control at 15 g/ha ([4]; application rate 15 g/ha) of 80% and a pest or weed control at 30 g/ha [4] of 100%. It also gave a pest or weed control at 15 g/ha ([5]; application rate 15 g/ha) of 70%, a pest or weed control at 30 g/ha [5] of 100% and a pest or weed control at 250 g/ha [6] of 100%. For the same compound, the pest or weed control at 250 g/ha [7] was 100%, the “Winter Barley “Suzuka” phytotoxicity (%)” value (Winter Barley “Suzuka”; [8]) was 3% and the “Winter Barley “Suzuka” phytotoxicity (%)” value (Winter Barley “Suzuka”; [9]) was 55%. The “Winter Barley “Suzuka” phytotoxicity (%)” value (Winter Barley “Suzuka”; [10]) was 97%, the “Winter Barley “Suzuka” phytotoxicity (%)” value (Winter Barley “Suzuka”; [11]) was 95% and the “Winter Wheat “Hereward” phytotoxicity (%)” value (Winter Wheat “Hereward”; [8]) was 58%. The “Winter Wheat “Hereward” phytotoxicity (%)” value (Winter Wheat “Hereward”; [9]) was 65%, the “Winter Wheat “Hereward” phytotoxicity (%)” value (Winter Wheat “Hereward”; [10]) was 89% and the “Winter Wheat “Hereward” phytotoxicity (%)” value (Winter Wheat “Hereward”; [11]) was 75%.
`CC#Cc1cc(C)c(C2=C(O)CC(Cc3ccc(C)cn3)C2=O)c(C)c1` (centres unmarked) [Compound A-8] showed an SETVI % phytotoxicity (Setaria viridis (SETVI); [9]) of 55%, an SETVI % phytotoxicity (Setaria viridis (SETVI); [10]) of 75% and an SETVI % phytotoxicity (Setaria viridis (SETVI); [11]) of 75%. For the same compound, the AVEFA % phytotoxicity (Avena fatua (AVEFA); [9]) was 45%, the AVEFA % phytotoxicity (Avena fatua (AVEFA); [10]) was 97% and the AVEFA % phytotoxicity (Avena fatua (AVEFA); [11]) was 95%. The ALOMY % phytotoxicity [1, 9] was 63%, the ALOMY % phytotoxicity [1, 10] was 94% and the ALOMY % phytotoxicity [1, 11] was 94%. It also gave a pest or weed control at 30 g/ha [2] of 90%, a pest or weed control at 30 g/ha [3] of 70% and a pest or weed control at 30 g/ha [4] of 80%. It also gave a pest or weed control at 30 g/ha [5] of 70%, a pest or weed control at 250 g/ha [6] of 100% and a pest or weed control at 250 g/ha [7] of 100%. The “Winter Barley “Suzuka” phytotoxicity (%)” value (Winter Barley “Suzuka”; [9]) was 9%, the “Winter Barley “Suzuka” phytotoxicity (%)” value (Winter Barley “Suzuka”; [10]) was 73% and the “Winter Barley “Suzuka” phytotoxicity (%)” value (Winter Barley “Suzuka”; [11]) was 60%. The “Winter Wheat “Hereward” phytotoxicity (%)” value (Winter Wheat “Hereward”; [9]) was 13%, the “Winter Wheat “Hereward” phytotoxicity (%)” value (Winter Wheat “Hereward”; [10]) was 63% and the “Winter Wheat “Hereward” phytotoxicity (%)” value (Winter Wheat “Hereward”; [11]) was 45%.
`CC#Cc1cc(C)c(C2=C(O)CC(Cc3ccc(F)cn3)C2=O)c(C)c1` (centres unmarked) [Compound A-11] was tested, and the SETVI % phytotoxicity (Setaria viridis (SETVI); [9]) was 89%, the SETVI % phytotoxicity (Setaria viridis (SETVI); [10]) was 98% and the SETVI % phytotoxicity (Setaria viridis (SETVI); [11]) was 97%. The AVEFA % phytotoxicity (Avena fatua (AVEFA); [9]) was 50%, the AVEFA % phytotoxicity (Avena fatua (AVEFA); [10]) was 93% and the AVEFA % phytotoxicity (Avena fatua (AVEFA); [11]) was 88%. The ALOMY % phytotoxicity [1, 9] was 73%, the ALOMY % phytotoxicity [1, 10] was 85% and the ALOMY % phytotoxicity [1, 11] was 85%. It also gave a pest or weed control at 30 g/ha [2] of 80%, a pest or weed control at 60 g/ha [2] of 100% and a pest or weed control at 30 g/ha [3] of 70%. It also gave a pest or weed control at 60 g/ha [3] of 100%, a pest or weed control at 30 g/ha [4] of 90% and a pest or weed control at 60 g/ha [4] of 100%. For the same compound, the pest or weed control at 30 g/ha [5] was 100%, the pest or weed control at 60 g/ha [5] was 100% and the pest or weed control at 250 g/ha [6] was 100%. For the same compound, the pest or weed control at 250 g/ha [7] was 100%, the “Winter Barley “Suzuka” phytotoxicity (%)” value (Winter Barley “Suzuka”; [9]) was 8% and the “Winter Barley “Suzuka” phytotoxicity (%)” value (Winter Barley “Suzuka”; [10]) was 68%. The “Winter Barley “Suzuka” phytotoxicity (%)” value (Winter Barley “Suzuka”; [11]) was 33%, the “Winter Wheat “Hereward” phytotoxicity (%)” value (Winter Wheat “Hereward”; [9]) was 3% and the “Winter Wheat “Hereward” phytotoxicity (%)” value (Winter Wheat “Hereward”; [10]) was 55%. For the same compound, the “Winter Wheat “Hereward” phytotoxicity (%)” value (Winter Wheat “Hereward”; [11]) was 8%.
For `CC#Cc1cc(C)c(C2=C(O)CC(Cc3ccc(C#N)cn3)C2=O)c(C)c1` (centres unmarked) [Compound A-14], the SETVI % phytotoxicity (Setaria viridis (SETVI); [9]) was 99%, the SETVI % phytotoxicity (Setaria viridis (SETVI); [10]) was 100% and the SETVI % phytotoxicity (Setaria viridis (SETVI); [11]) was 100%. It also gave an AVEFA % phytotoxicity (Avena fatua (AVEFA); [9]) of 38%, an AVEFA % phytotoxicity (Avena fatua (AVEFA); [10]) of 83% and an AVEFA % phytotoxicity (Avena fatua (AVEFA); [11]) of 80%. It also gave an ALOMY % phytotoxicity [1, 9] of 78%, an ALOMY % phytotoxicity [1, 10] of 97% and an ALOMY % phytotoxicity [1, 11] of 97%. The pest or weed control at 30 g/ha [2] was 70%, the pest or weed control at 60 g/ha [2] was 80% and the pest or weed control at 30 g/ha [3] was 0%. It also gave a pest or weed control at 60 g/ha [3] of 60%, a pest or weed control at 30 g/ha [4] of 70% and a pest or weed control at 60 g/ha [4] of 90%. The pest or weed control at 30 g/ha [5] was 90%, the pest or weed control at 60 g/ha [5] was 90% and the pest or weed control at 250 g/ha [6] was 100%. For the same compound, the pest or weed control at 250 g/ha [7] was 100%, the “Winter Barley “Suzuka” phytotoxicity (%)” value (Winter Barley “Suzuka”; [9]) was 45% and the “Winter Barley “Suzuka” phytotoxicity (%)” value (Winter Barley “Suzuka”; [10]) was 97%. For the same compound, the “Winter Barley “Suzuka” phytotoxicity (%)” value (Winter Barley “Suzuka”; [11]) was 93%, the “Winter Wheat “Hereward” phytotoxicity (%)” value (Winter Wheat “Hereward”; [9]) was 30% and the “Winter Wheat “Hereward” phytotoxicity (%)” value (Winter Wheat “Hereward”; [10]) was 80%. For the same compound, the “Winter Wheat “Hereward” phytotoxicity (%)” value (Winter Wheat “Hereward”; [11]) was 78%.
